Patent publication US10670605B2, “Cysteine reactive probes and uses thereof” (The Scripps Research Institute, priority 2015, dated 2020)

Columns and labels:
Experiment in all cases: Competitive isoTOP-ABPP, cell lysates;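 as to isoTOP-ABPP reactivity profile ratio, P09211 C48: Heavy/light ratio DMSO over fragment-treated so higher means more cysteine engagement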;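 as to isoTOP-ABPP reactivity profile ratio, Q15084 C190: Heavy/light ratio DMSO over fragment-treated so higher means more cysteine engagement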
Assay type in all cases: binding
GSTP1 C48 (P09211) = GSTP1 C48 (P09211) (Homo sapiens, UniProt P09211); settings: for R value (DMSO/fragment) / isoTOP-ABPP ratio, P09211_C48: 500 μM;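 as to isoTOP-ABPP reactivity profile ratio, P09211 C48: Heavy/light ratio DMSO over fragment-treated so higher means more cysteine engagement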
IDH1 C269 (O75874) = IDH1 C269 (O75874) (Homo sapiens, UniProt O75874)
PDIA6 C55 (Q15084) = target: T1, PDIA6 C55 (Q15084) (Homo sapiens, UniProt Q15084); settings: for R value (DMSO/fragment) / isoTOP-ABPP ratio Q15084_C55: 500 μM
T1 sequence (Q15084 20-440): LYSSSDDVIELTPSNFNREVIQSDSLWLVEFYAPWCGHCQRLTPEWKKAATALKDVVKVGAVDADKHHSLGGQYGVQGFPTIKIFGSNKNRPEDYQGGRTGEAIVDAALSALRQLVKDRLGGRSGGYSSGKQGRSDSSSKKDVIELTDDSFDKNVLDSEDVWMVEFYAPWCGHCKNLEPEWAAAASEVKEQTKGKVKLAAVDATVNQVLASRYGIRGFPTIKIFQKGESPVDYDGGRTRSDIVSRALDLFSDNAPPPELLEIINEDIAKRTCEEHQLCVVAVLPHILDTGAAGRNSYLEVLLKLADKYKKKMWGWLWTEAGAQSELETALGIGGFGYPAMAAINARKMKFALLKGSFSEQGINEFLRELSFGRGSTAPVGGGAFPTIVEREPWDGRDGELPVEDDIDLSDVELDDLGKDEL

SMARCC2 C145 (Q8TAQ2) = SMARCC2 C145 (Q8TAQ2) (Homo sapiens, UniProt Q8TAQ2)
SAMHD1 C522 (Q9Y3Z3) = SAMHD1 C522 (Q9Y3Z3) (Homo sapiens, UniProt Q9Y3Z3)
PDIA6 C190 (Q15084) = target: T2, PDIA6 C190 (Q15084) (Homo sapiens, UniProt Q15084);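 as to isoTOP-ABPP reactivity profile ratio, Q15084 C190: Heavy/light ratio DMSO over fragment-treated so higher means more cysteine engagement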
T2 sequence (Q15084 20-440): T1 sequence (Q15084 20-440)

GNB2L1 C182 (P63244) = GNB2L1 C182 (P63244) (Homo sapiens, UniProt P63244); settings: for R value (DMSO/fragment) / isoTOP-ABPP ratio, P63244_C182: 500 μM
XPO1 C528 (O14980) = XPO1 C528 (O14980) (Homo sapiens, UniProt O14980)
UBE2L3 C86 (P68036) = UBE2L3 C86 (P68036) (Homo sapiens, UniProt P68036)
PCK2 C306 (Q16822) = target: T3, PCK2 C306 (Q16822) (Homo sapiens, UniProt Q16822); settings: 500 μM, invitro, 231
T3 sequence (Q16822 33-640): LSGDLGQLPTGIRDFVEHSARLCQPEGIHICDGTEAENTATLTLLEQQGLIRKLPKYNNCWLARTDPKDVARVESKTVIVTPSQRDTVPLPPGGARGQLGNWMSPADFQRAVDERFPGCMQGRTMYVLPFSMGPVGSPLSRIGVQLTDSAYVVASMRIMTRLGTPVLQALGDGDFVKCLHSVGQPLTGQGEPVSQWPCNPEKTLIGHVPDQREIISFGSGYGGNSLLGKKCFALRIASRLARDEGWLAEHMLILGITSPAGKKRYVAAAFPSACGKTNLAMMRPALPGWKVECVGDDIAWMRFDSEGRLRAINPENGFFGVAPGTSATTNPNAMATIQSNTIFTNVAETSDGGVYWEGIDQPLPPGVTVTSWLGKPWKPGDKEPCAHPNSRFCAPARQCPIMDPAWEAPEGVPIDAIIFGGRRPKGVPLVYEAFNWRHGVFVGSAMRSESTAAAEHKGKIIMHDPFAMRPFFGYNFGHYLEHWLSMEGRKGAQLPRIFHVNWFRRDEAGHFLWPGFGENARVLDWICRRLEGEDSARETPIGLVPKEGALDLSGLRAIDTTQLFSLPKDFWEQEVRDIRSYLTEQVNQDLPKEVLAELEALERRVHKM

O=C(CCl)NC1C(O)OC(CO)C(O)C1O (mixture of isomers) [compound 44]
isoTOP-ABPP reactivity profile ratio, P09211_C48 (GSTP1 C48 (P09211); 500 μm, in-vitro_ramos_231): 0.9 | isoTOP-ABPP reactivity profile ratio, O75874_C269 (IDH1 C269 (O75874); 500 μm, in-vitro_ramos_231): 0.8 | isoTOP-ABPP reactivity profile ratio, Q15084_C55 (PDIA6 C55 (Q15084); 500 μm, in-vitro_ramos_231): 1.0 | isoTOP-ABPP reactivity profile ratio, Q8TAQ2_C145 (SMARCC2 C145 (Q8TAQ2); 500 μm, in-vitro_ramos_231): 1.0 | isoTOP-ABPP reactivity profile ratio, Q9Y3Z3_C522 (SAMHD1 C522 (Q9Y3Z3); 500 μm, in-vitro_ramos_231): 0.8 | isoTOP-ABPP reactivity profile ratio, Q15084_C190 (PDIA6 C190 (Q15084); 500 μm, in-vitro_ramos_231): 1.0

COc1ccc2c(c1)CCCN2C(=O)CCl [compound 2]
R value (DMSO/fragment) (GSTP1 C48 (P09211); in vitro, MDA-MB-231): 3.1 | R value (DMSO/fragment) (GSTP1 C48 (P09211); invitro, ramos): 1.6 | R value (DMSO/fragment) (IDH1 C269 (O75874); 500 μM, in vitro, MDA-MB-231): 20.0 | R value (DMSO/fragment) (GNB2L1 C182 (P63244); in vitro, MDA-MB-231): 1.2 | R value (DMSO/fragment) (GNB2L1 C182 (P63244); invitro, ramos): 1.2 | R value (DMSO/fragment) (PDIA6 C55 (Q15084); in vitro, MDA-MB-231): 6.3 | R value (DMSO/fragment) (PDIA6 C55 (Q15084); invitro, ramos): 7.1 | R value (DMSO/fragment) (SMARCC2 C145 (Q8TAQ2); 500 μM, in vitro, MDA-MB-231): 8.5 | R value (DMSO/fragment) (SMARCC2 C145 (Q8TAQ2); 500 μM, invitro, ramos): 14.0 | R value (DMSO/fragment) (XPO1 C528 (O14980); 500 μM, in vitro, MDA-MB-231): 4.9 | R value (DMSO/fragment) (XPO1 C528 (O14980); 500 μM, invitro, ramos): 3.1 | R value (DMSO/fragment) (SAMHD1 C522 (Q9Y3Z3); 500 μM, invitro, ramos): 4.0 | R value (DMSO/fragment) (UBE2L3 C86 (P68036); 500 μM, in vitro, MDA-MB-231): 2.8 | R value (DMSO/fragment) (UBE2L3 C86 (P68036); 500 μM, invitro, ramos): 2.5 | R value (DMSO/fragment) (PDIA6 C190 (Q15084); 500 μM, invitro, ramos): 15.4

C=CC(=O)N(c1ccccc1)c1ccc(Br)cc1 [compound 5]
isoTOP-ABPP ratio, P09211_C48 (GSTP1 C48 (P09211); invitro, 231): 2.2 | isoTOP-ABPP ratio, P09211_C48 (GSTP1 C48 (P09211); invitro, ramos): 2.4 | isoTOP-ABPP ratio, Q16822_C306 (PCK2 C306 (Q16822)): 1.7 | isoTOP-ABPP ratio, O75874_C269 (IDH1 C269 (O75874); 500 μM, invitro, ramos): 0.8 | isoTOP-ABPP ratio, P63244_C182 (GNB2L1 C182 (P63244); invitro, 231): 1.5 | isoTOP-ABPP ratio, P63244_C182 (GNB2L1 C182 (P63244); invitro, ramos): 1.4 | isoTOP-ABPP ratio Q15084_C55 (PDIA6 C55 (Q15084); invitro, 231): 0.9 | isoTOP-ABPP ratio Q15084_C55 (PDIA6 C55 (Q15084); invitro, ramos): 1.1 | isoTOP-ABPP ratio Q8TAQ2_C145 (SMARCC2 C145 (Q8TAQ2); 500 μM, invitro, ramos): 2.8 | isoTOP-ABPP ratio O14980_C528 (XPO1 C528 (O14980); 500 μM, invitro, 231): 20.0 | isoTOP-ABPP ratio, Q9Y3Z3_C522 (SAMHD1 C522 (Q9Y3Z3); 500 μM, invitro, ramos): 5.4 | isoTOP-ABPP ratio, P68036_C86 (UBE2L3 C86 (P68036); 500 μM, invitro, ramos): 4.8 | isoTOP-ABPP ratio, Q15084_C190 (PDIA6 C190 (Q15084); 500 μM, invitro, ramos): 1.7

O=C(/C=C/c1ccccc1)Nc1cc(C(F)(F)F)cc(C(F)(F)F)c1 [compound 26]
isoTOP-ABPP ratio (reactivity profile), P09211_C48 (GSTP1 C48 (P09211); 500 μm in-vitro ramos): 0.9 | isoTOP-ABPP ratio (reactivity profile), P63244_C182 (GNB2L1 C182 (P63244); 500 μm in-vitro ramos): 1.0 | isoTOP-ABPP ratio (reactivity profile), Q15084_C55 (PDIA6 C55 (Q15084); 500 μm in-vitro ramos): 0.9 | isoTOP-ABPP ratio (reactivity profile), Q8TAQ2_C145 (SMARCC2 C145 (Q8TAQ2); 500 μm in-vitro ramos): 0.9 | isoTOP-ABPP ratio (reactivity profile), O14980_C528 (XPO1 C528 (O14980); 500 μm in-vitro ramos): 0.9 | isoTOP-ABPP ratio (reactivity profile), Q9Y3Z3_C522 (SAMHD1 C522 (Q9Y3Z3); 500 μm in-vitro ramos): 0.9 | isoTOP-ABPP ratio (reactivity profile), P68036_C86 (UBE2L3 C86 (P68036); 500 μm in-vitro ramos): 0.7 | isoTOP-ABPP ratio (reactivity profile), Q15084_C190 (PDIA6 C190 (Q15084); 500 μm in-vitro ramos): 0.9
